Measured values as given in patent publication US20030134859A1 (SANKYO COMPANY, LIMITED, priority 2000, published 2003).
Read-outs that look alike come from different tables or passages of the source.

Legend:
Balb/c mice = assay: Prevention of concanavalin A liver injury; assay type: in vivo, mouse; conditions: Mus musculus, po, 24 h, 10 mg/mL suspension at 10 mL/kg, 30 min prior to Con A, plasma 24 hr after Con A
Protocol: Five (5) Balb/c mice (female, 6-8 weeks old) per group were used. Liver injury was elicited in the mouse by injection of concanavalin A (Con A) dissolved in saline (2.0 mg/mL) into the tail vein at a volume of 10 mL/kg of the solution (Hepatology, 21, 190-198 (1995)).
The test compounds were suspended in distilled water containing 0.5% CMC, at a concentration of 10 mg/mL. This suspended solution was orally administered to the mouse at a volume of 10 mL/kg, 30 min prior to injection of Con A (group A).
Apart from this group, distilled water containing 0.5% CMC powder, instead of the test compound, was orally administered in the second group of mice (group B). In the 3rd group, nothing was given to the mice (group C).
Twenty four (24) hr after the injection of Con A, blood was collected from the abdominal aorta of the mice and the plasma was isolated while mixing with heparin. Activities of glutamic acid oxaloacetic acid transaminase (AST) and glutamic acid pyruvic acid transaminase (ALT) in the plasma were determined according to the methods described by Nagakawa et al. (J. Pharmacol. Exp. Ther., 264, 496-500 (1993)). From the values obtained inhibitory rates of the test compound against AST and ALT levels which had been increased by injection of Con A, were obtained based on the following equation.
Inhibitory Rate(%)={1−[(A−C)/(B−C)]}×100
A: The average level of AST or ALT in the group A
B: The average level of AST or ALT in the group B
C: The average level of AST or ALT in the group C

TNF-α production = assay: Inhibitory activity against cytokine (TNF-α) production in LPS-stimulated RAW264.7 cells; assay type: cell-based, mouse; conditions: Mus musculus, RAW264.7, 15 h, 1 μM test compound, LPS 10 ng/mL
Summary of the method: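 Mouse RAW264.7 macrophages (5,000 cells/well) stimulated with 10 ng/mL LPS (final) and treated with test compound at 1 μM final for 15 h at 37 °C. Supernatant mouse TNF-α measured by ELISA; % inhibition = 100−(A−B)/(C−B)×100, using unstimulated and LPS-only controls.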

Rat white adipocytes = assay: Inhibition of the differentiation of adipocytes (Oil Red O); assay type: cell-based; conditions: Rattus norvegicus, Adipocyte, 120 h, 100 nM test compound; 5 days; Oil Red O ABS550; control = 100%, blank = 0%; Table 3; read-out: Rate of Differentiation (%)
Summary of the method: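 Rat white preadipocytes, 5,000 cells/well, given differentiation medium with compound at 100 nM final (0.1% DMSO) for 5 days at 37 °C. Lipid stained with Oil Red O, eluted in DMSO, read at 550 nm; differentiation % relative to DMSO control (100%) and blank (0%).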

[1] = read-out: Preventing rate against liver injury, ALT (%)
[2] = read-out: Preventing rate against liver injury, AST (%)

Row | SMILES | inhibition in vivo at 10000 µg/mL, 100 mg/kg (Balb/c mice; [1]) | inhibition in vivo at 10000 µg/mL, 100 mg/kg (Balb/c mice; [2]) | inhibition at 1 µM (TNF-α production) | activity at 0.1 µM (Rat white adipocytes)
1 | Cc1ccc(NC(=O)c2cc([N+](=O)[O-])ccc2Cl)cc1 [Example 1, N-(4-Methylphenyl)-(2-chloro-5-nitrophenyl)carboxamide] | 40.1% | 19% |  | 
2 | O=C(Nc1ccc(-c2ccccc2)cc1)c1cc([N+](=O)[O-])ccc1Cl [Example 2, N-(4-Phenylphenyl)-(2-chloro-5-nitrophenyl)carboxamide] | 64.5% | 4.1% | 24.5% | 
3 | O=C(Nc1ccc(-c2ccccn2)cc1)c1cc([N+](=O)[O-])ccc1Cl [Example 8, N-[4-(2-Pyridyl)phenyl]-(2-chloro-5-nitrophenyl)carboxamide] | 57% | 56% | 18.9% | 
4 | Cc1ccc2nc(-c3ccc(NC(=O)c4cc([N+](=O)[O-])ccc4Cl)cc3)sc2c1 [Example 10, N-[4-(6-Methylbenzothiazol-2-yl)phenyl]-(2-chloro-5-nitrophenyl)carboxamide] | 55.9% | 49% |  | 51.1%
5 | CCCCCc1ccc(NC(=O)c2cc([N+](=O)[O-])ccc2Cl)cc1 [Example 16, N-(4-Pentylphenyl)-(2-chloro-5-nitrophenyl)carboxamide] | 44.4% | 21.4% | 19% | 
6 | N#Cc1ccc(NC(=O)c2cc([N+](=O)[O-])ccc2Cl)cc1 [Example 20, N-(4-Cyanophenyl)-(2-chloro-5-nitrophenyl)carboxamide] | 67.2% | 77% |  | 57.7%
7 | O=C(Nc1nc(-c2ccccc2)cs1)c1cc([N+](=O)[O-])ccc1Cl [Example 35, N-(4-Phenylthiazol-2-yl)-(2-chloro-5-nitrophenyl)carboxamide] | 12.4% |  |  | 
8 | O=C(Nc1nc(-c2cccnc2)cs1)c1cc([N+](=O)[O-])ccc1Cl [Example 37, N-[4-(3-Pyridyl)thiazol-2-yl)-(2-chloro-5-nitrophenyl)carboxamide] | 20.7% |  | 16% | 
9 | COc1cnc(NS(=O)(=O)c2ccc(NC(=O)c3cc([N+](=O)[O-])ccc3Cl)cc2)nc1 [Example 105, N-[4-[(5-Methoxypyrimidin-2-yl)aminosulfonyl]phenyl]-(2-chloro-5-nitrophenyl)carboxamide] | 22.4% | 27.5% |  | 
10 | N=C(N)NS(=O)(=O)c1ccc(NC(=O)c2cc([N+](=O)[O-])ccc2Cl)cc1 [Example 106, N-[4-(Amidinoaminosulfonyl)phenyl]-(2-chloro-5-nitrophenyl)carboxamide] | 114% | 106% |  | 
11 | O=C(Nc1ccc(S(=O)(=O)Nc2cccnc2)cc1)c1cc([N+](=O)[O-])ccc1Cl [Example 178] | 50.5% | 64.5% |  | 
12 | CC(C)(C)OC(=O)Nc1cccc(-c2csc(NC(=O)c3cc([N+](=O)[O-])ccc3Cl)n2)c1 [Example 234, N-[4-(3-tert-Butoxycarbonylaminophenyl)thiazol-2-yl]-(2-chloro-5-nitrophenyl)carboxamide] |  |  | 32.5% | 60.5%
13 | CS(=O)(=O)N(c1ccc(-c2ccc(NC(=O)c3cc([N+](=O)[O-])ccc3Cl)cc2)cc1)S(C)(=O)=O [Example 235, N-[4-[4-(N,N-Dimethanesulfonylamino)phenyl]phenyl]-(2-chloro-5-nitrophenyl)carboxamide] |  |  | 40.2% | 3.6%
14 | O=C(Nc1ccc(CCNC(=S)Nc2cccnc2)cc1)c1cc([N+](=O)[O-])ccc1Cl [Example 273, N-[4-[2-(Pyridin-3-yl)aminothiocarbonylaminoethyl]phenyl]-(2-chloro-5-nitrophenyl)carboxamide] |  |  | 19.9% | 47.9%
